Assay results reported in US20160030415A1, “TREATMENT AND PROPHYLAXIS OF KIDNEY DISEASES” (priority 2013, published 2016).

System: STZ induced diabetic nephropathy in rats
Experiment: Study 4: HCQ and its combination with Losartan, Telmisartan, Azilsartan and Ramipril, with Glimepiride control
Format: in vivo, Wistar rats
Details: for HDL / TC / TG / GSH / TBARS / Total protein kidney / Creatinine / Total protein / Urea: after 8th week; for Glucose Day1 / Glucose Day14 / Glucose Day28 / Glucose Day42 / Glucose Day56: blood; for GSH / TBARS / Total protein kidney: kidney homogenate; for Creatinine / Total protein / Urea: serum
Description: The methods described in Terri et al, Diabetes Volume, 1997, 46:1612-1618, and Takashi et al, Jpn J. Pharmacol, 1997, 75, 59-64, were followed for inducing Diabetes in rats by injecting Streptozotocin. The Efficacy of the drugs was tested in two different models, one involving comparison with diabetic control (i.e. Diabetic Rats not treated with any medication) and the other involving comparison with the anti-diabetic control group (i.e. Diabetic rats administered Glimepiride) in two separate studies.
Wistar rats of either sex weighing 150-200 g were divided randomly into 28 groups consisting of 6 animals each. Diabetes was induced in rats by single administration of streptozotocin (55 mg/kg/i.p) dissolved in 0.1 M-citrate buffer, pH 4.5. Group 1 (normal control) consisted of normal rats that neither received streptozotocin nor any test drug; Group 2 served as Diabetic control; Group 3 was diabetic rats treated with Hydroxychloroquine (35 mg/kg); Group 4 was diabetic rats treated with Hydroxychloroquine (45 mg/kg) and Group 5 was diabetic rats treated with Hydroxychloroquine (70 mg/kg); Group 6 was diabetic rats treated with Losartan (5.5 mg/kg); Group 7 was diabetic rats treated with Losartan (11 mg/kg); Group 8 was diabetic rats treated with combination of Losartan (5.5 mg/kg) and Hydroxychloroquine (45 mg/kg); Group 9 was diabetic rats treated with combination of Losartan (11 mg/kg) and Hydroxychloroquine (35 mg/kg); Group 10 was diabetic rats treated with Ramipril (0.6 mg/kg); Group 11 was diabetic rats treated with Ramipril (0.3 mg/kg); Group 12 was diabetic rats treated with combination of Ramipril (0.6 mg/kg) and Hydroxychloroquine (35 mg/kg); Group 13 was diabetic rats treated with combination of Ramipril (0.3 mg/kg) and Hydroxychloroquine (45 mg/kg); Group 14 was diabetic rats treated with combination of Ramipril (0.6 mg/kg) and Hydroxychloroquine (45 mg/kg); Group 15 was diabetic rats treated with combination of Ramipril (0.3 mg/kg) and Hydroxychloroquine (35 mg/kg); Group 16 was diabetic rats treated with Telmisartan (9.5 mg/kg); Group 17 was diabetic rats treated with Telmisartan (4.5 mg/kg); Group 18 was diabetic rats treated with combination of Telmisartan (9.5 mg/kg) and Hydroxychloroquine (35 mg/kg); Group 19 was diabetic rats treated with combination of Telmisartan (4.5 mg/kg) and Hydroxychloroquine (45 mg/kg); Group 20 was diabetic rats treated with combination of Telmisartan (9.5 mg/kg) and Hydroxychloroquine (45 mg/kg); Group 21 was diabetic rats treated with combination of Telmisartan (4.5 mg/kg) and Hydroxychloroquine (35 mg/kg); Group 22 was diabetic rats treated with Azilsartan (4.5 mg/kg); Group 23 was diabetic rats treated with Azilsartan (2.5 mg/kg); Group 24 was diabetic rats treated with combination of Azilsartan (4.5 mg/kg) and Hydroxychloroquine (35 mg/kg); Group 25 was diabetic rats treated with combination of Azilsartan (2.5 mg/kg) and Hydroxychloroquine (45 mg/kg); Group 26 was diabetic rats treated with combination of Azilsartan (4.5 mg/kg) and Hydroxychloroquine (45 mg/kg); Group 27 was diabetic rats treated with combination of Azilsartan (2.5 mg/kg) and Hydroxychloroquine (35 mg/kg); Group 28 served as Anti-Diabetic control wherein diabetic rats were treated with antidiabetic drug Glimepiride (GLM) (1 mg/kg).
The study drugs were dissolved/suspended in vehicle and administered orally once a day for eight weeks. The diabetes mellitus induced nephropathy was assessed by estimating the level of serum urea, serum creatinine and total serum protein content after completion of eighth week of study. TBARS, GSH and Total Protein were measured as markers of renal oxidative stress in Kidney Homogenate after completion of eighth week of study. Blood glucose levels were also assessed at weekly interval.

[1] = dose mg/kg: HCQ 35, LT 5.5, RM 0.3, TL 4.5, AZ 2.5, alone or combined with HCQ 35
[2] = dose mg/kg: HCQ 45, LT 11, RM 0.6, TL 9.5, AZ 4.5, alone or combined with HCQ 45

## CCOc1nc2cccc(C(=O)O)c2n1Cc1ccc(-c2ccccc2-c2nc(=O)o[nH]2)cc1 [Azilsartan]
[1]
  HDL: 27.17 ± 1.17 mg/dL
  TC: 142 ± 2.1 mg/dL
  TG: 97 ± 5.66 mg/dL
  Glucose Day1: 267.17 ± 12.21 mg/dL
  Glucose Day14: 215.5 ± 14.01 mg/dL
  Glucose Day28: 180 ± 8.00 mg/dL
  Glucose Day42: 160.67 ± 6.12 mg/dL
  Glucose Day56: 141 ± 6.924 mg/dL
  GSH: 0.86 ± 0.21 nM/mg
  TBARS: 0.6 ± 0.11 nM/mg
  Total protein kidney: 874.5 ± 21.80 µg/mL
  Creatinine: 3.61 ± 0.16 mg/dL
  Total protein: 4.76 ± 0.15 g/dL
  Urea: 40.83 ± 2.64 mg/dL
[2]
  HDL: 26.67 ± 1.51 mg/dL
  TC: 141.17 ± 2.32 mg/dL
  TG: 103 ± 3.9 mg/dL
  Glucose Day1: 278.5 ± 14.22 mg/dL
  Glucose Day14: 224.17 ± 17.93 mg/dL
  Glucose Day28: 179 ± 7.13 mg/dL
  Glucose Day42: 158.67 ± 6.77 mg/dL
  Glucose Day56: 139.83 ± 4.79 mg/dL
  GSH: 1.26 ± 0.44 nM/mg
  TBARS: 0.58 ± 0.14 nM/mg
  Total protein kidney: 837.5 ± 20.15 µg/mL
  Creatinine: 3.44 ± 0.28 mg/dL
  Total protein: 4.99 ± 0.25 g/dL
  Urea: 41 ± 3.58 mg/dL

## CCN(CCO)CCCC(C)Nc1ccnc2cc(Cl)ccc12 (stereo not shown) [Hydroxychloroquine, 2-[{4-[(7-chloroquinolin-4-yl)amino]pentyl}(ethyl)amino]ethanol]
[1]
  HDL: 29.5 ± 2.17 mg/dL
  TC: 133.5 ± 3.62 mg/dL
  TG: 94.83 ± 2.48 mg/dL
  Glucose Day1: 268.83 ± 17.77 mg/dL
  Glucose Day14: 203.33 ± 28.11 mg/dL
  Glucose Day28: 176.83 ± 29.1 mg/dL
  Glucose Day42: 165 ± 13.61 mg/dL
  Glucose Day56: 151.5 ± 7.42 mg/dL
  GSH: 0.71 ± 0.16 nM/mg
  TBARS: 0.67 ± 0.11 nM/mg
  Total protein kidney: 865.33 ± 27.9 µg/mL
  Creatinine: 3.11 ± 0.16 mg/dL
  Total protein: 4.52 ± 0.39 g/dL
  Urea: 44.33 ± 1.75 mg/dL
[2]
  HDL: 29 ± 2.19 mg/dL
  TC: 130.33 ± 2.07 mg/dL
  TG: 96.83 ± 2.93 mg/dL
  Glucose Day1: 277.5 ± 17.74 mg/dL
  Glucose Day14: 229.17 ± 10.38 mg/dL
  Glucose Day28: 184.17 ± 14.5 mg/dL
  Glucose Day42: 154.17 ± 9.13 mg/dL
  Glucose Day56: 140 ± 7.56 mg/dL
  GSH: 0.7 ± 0.17 nM/mg
  TBARS: 0.65 ± 0.13 nM/mg
  Total protein kidney: 831.67 ± 24.15 µg/mL
  Creatinine: 2.99 ± 0.34 mg/dL
  Total protein: 5.4 ± 0.36 g/dL
  Urea: 40.83 ± 2.14 mg/dL
Dose mg/kg: HCQ 70, GLM 1
  HDL: 30.67 ± 1.86 mg/dL
  TC: 124.67 ± 2.94 mg/dL
  TG: 90.17 ± 3.49 mg/dL
  Glucose Day1: 274.5 ± 16.01 mg/dL
  Glucose Day14: 209.67 ± 21.69 mg/dL
  Glucose Day28: 169.5 ± 10.48 mg/dL
  Glucose Day42: 148.67 ± 8.5 mg/dL
  Glucose Day56: 130.83 ± 7.22 mg/dL
  GSH: 0.67 ± 0.19 nM/mg
  TBARS: 0.63 ± 0.12 nM/mg
  Total protein kidney: 752.33 ± 18.8 µg/mL
  Creatinine: 2.68 ± 0.23 mg/dL
  Total protein: 5.72 ± 0.3 g/dL
  Urea: 38.17 ± 1.47 mg/dL
